Assay: Cocaine degradation in mouse sera by mass spectrometry
Format: in vitro ADME
Text: FIG. 15. Degradation of cocaine in non-immune mouse serum (NIS) and in non-immune mouse serum diluted in PBS (PBS/NIS) by mass spectrometry.
FIGS. 16A-B. Rates of cocaine degradation in (A) non-immune mouse sera and (B) 5 immune mouse sera measured by a decrease in peak area (y-axis) of the cocaine peak generated by mass-spectrometry analysis.
The kinetics of cocaine degradation in immune and non-immune mouse sera was then studied by mass spectroscopy to discern the pharmacological effects of anti-coc antibodies. Although degradation rates were nearly uniform in all non-immune mice (FIG. 16A), significant differences existed in the rates in immune mice, depending on the titer of anti-coc antibodies in the plasma (FIG. 16B).

**Q.** Which results are given for `COC(=O)[C@@H]1C2CCC(C[C@@H]1OC(=O)c1ccccc1)N2C` (some centres unmarked) [cocaine]?
**A.** rate of cocaine degradation (immune mouse sera, with increasing titer of anti-coc antibodies): degradation rates conversely decreased; rate of cocaine degradation (non-immune mouse serum diluted in PBS versus undiluted): decreased rate of cocaine degradation

— US9981025B2, “Anti-drug vaccines” (priority 2009, dated 2018)
